Patent publication US4686220A, “Substituted 2-[b-substituted-amino)-ethylamino]-1,4-naphthalenediones for treating asthma, allergic diseases and inflammation in warm-blooded animals” (American Cyanamid Company, priority 1985, dated 1987)
Counter-ions that a name gives are not always drawn. Like-named read-outs stand apart in the source and are kept apart here.

Experiments:
[1] = test system: Immunologically Stimulated Human Basophils; experiment: Inhibition of Histamine Release from Immunologically Stimulated Human Basophils; type: cell-based; settings: anti-IgE or antigen stimulated, 60 min, 37° C., read-out: ED50 (concentration which causes 50% inhibition of histamine release)
Description: The novel compounds of this invention have been tested by the procedure of Lichtenstein, L. M. and Osler, A. G., J. Exp. Med., 120, 507-530 (1964), which evaluates the ability of compounds to inhibit mediator (histamine) release from immunologically stimulated human basophils. 10X Concentrated Tris Buffer Dissolve 140.3 g of sodium chloride, 7.45 g of potassium chloride and 74.5 g of Trizma-Tris Pre-Set, Reagent Grade, pH 7.6, at 25° C. (Sigma Chemical Co.) in sufficient water to give a final volume of 2 liters. Human Albumin (Sigma Chemical Co.) (30 mg/ml) Calcium and Magnesium Stocks Made to 0.075M and 0.5M respectively, with calcium chloride dihydrate and magnesium chloride hexahydrate. Tris-A Buffer A 10 ml portion of 10X Tris Buffer and 1.0 ml of human albumin are diluted to 100 ml with water. Tris ACM Buffer A 10 ml portion of 10X Tris Buffer, 1.0 ml of human albumin, 0.8 ml of calcium stock and 0.2 ml of magnesium stock are diluted to 100 ml with water. Rabbit Antihuman IgE Behring Diagnostics (Generally used at 10 μg protein/ml final concentration.) House Dust Mite Extract (Dermatophagoides Farinae) Strength 1:100 (w:v) allergenic extract, Hollister-Stier Labs. Generally this is diluted 1:1000 to 1:10,000 (considering the vial as stock). Other Allergens Intradermal solutions or intramuscular preparations for hyposensitization, Hollister-Stier Labs. The final concentration used is on the order of 1 PNU/ml. Separation of Leukocytes from Human Blood and Challenge Eighty milliliters of blood is withdrawn from subjects with known histamine release to anti-IgE, ragweed antigen or other specific allergen, using four 20 ml heparinized tubes. This 80 ml of blood is mixed with 20 ml of saline containing 0.6 g of dextrose and 1.2 g of dextran. The blood is allowed to sediment at room temperature in two 50 ml polycarbonate centrifuge tubes until a sharp interface develops between the red cells and plasma (60-90 minutes). The plasma (top) layer from each tube is withdrawn by pipet and transferred to respective 50 ml polycarbonate tubes. The plasma is centrifuged for 8 minutes at 110×G at 4° C. The supernatant is carefully poured off as completely as possible and the cell button is resuspended in 2-3 ml of Tris-A buffer using a siliconized Pasteur pipet. The resuspension is accomplished by drawing the liquid gently in an out of the pipet, with the tip below the liquid, until an even suspension of cells is obtained. Sufficient Tris-A buffer is then added to bring the volume in the tube to about 45 ml and the tube is centrifuged at 110×G for 8 minutes at 4° C. The supernatant is poured off and the cell button is resuspended and centrifuged as described above. The supernatant is poured off and the cell button suspended in 2-3 ml of Tris-ACM buffer to make the final volume sufficient to allow addition to the reaction tubes. Reaction tubes containing anti-IgE or antigens, either alone or with test compound in a total volume of 0.2 ml are prepared and placed in a 37° C. bath. The cells are warmed to 37° C. and frequently swirled to ensure an even suspension, while 1.0 ml aliquots are added to each reaction tube. The tubes are then incubated for 60 minutes at 37° C., vortexing the tubes gently every 15 minutes to keep the cells evenly suspended. When the reaction is complete, the tubes are centrifuged at 4° C. for 10 minutes at 1500 rpm to sediment the cells. One ml aliquots of supernatant are transferred to 12 mm by 75 mm polyethylene tubes and 0.2 ml of 8% perchloric acid is added to each tube. Blanks and totals are included in each test. The blanks have cells and all reagents except antigen or anti-IgE. The totals contain 0.24 ml of 8% perchloric acid, one ml of cells and 0.2 ml of buffer. All samples are then centrifuged to remove the precipitate protein. Assay of Released Histamine by the Automated Fluorometric Method This automated method has been described by Siraganian, R. P., in Anal. Biochem., 57, 383 (1974) and J. Immunol. […]

Neutrophil Lipoxygenase = target: T1, Neutrophil Lipoxygenase (Cavia porcellus, UniProt A0A286X958); experiment: Inhibition of Neutrophil Lipoxygenase from Immunologically Stimulated Guinea Pig Neutrophiles (LTB4 and 5-HETE); type: cell-based; settings: 10 μg/ml, 100 μM arachidonic acid and 20 μM A23187, the lower the percentage, the more active
T1 construct: endogenous in cells; host or cells: guinea pig peritoneal neutrophils
T1 sequence (A0A286X958 1-674): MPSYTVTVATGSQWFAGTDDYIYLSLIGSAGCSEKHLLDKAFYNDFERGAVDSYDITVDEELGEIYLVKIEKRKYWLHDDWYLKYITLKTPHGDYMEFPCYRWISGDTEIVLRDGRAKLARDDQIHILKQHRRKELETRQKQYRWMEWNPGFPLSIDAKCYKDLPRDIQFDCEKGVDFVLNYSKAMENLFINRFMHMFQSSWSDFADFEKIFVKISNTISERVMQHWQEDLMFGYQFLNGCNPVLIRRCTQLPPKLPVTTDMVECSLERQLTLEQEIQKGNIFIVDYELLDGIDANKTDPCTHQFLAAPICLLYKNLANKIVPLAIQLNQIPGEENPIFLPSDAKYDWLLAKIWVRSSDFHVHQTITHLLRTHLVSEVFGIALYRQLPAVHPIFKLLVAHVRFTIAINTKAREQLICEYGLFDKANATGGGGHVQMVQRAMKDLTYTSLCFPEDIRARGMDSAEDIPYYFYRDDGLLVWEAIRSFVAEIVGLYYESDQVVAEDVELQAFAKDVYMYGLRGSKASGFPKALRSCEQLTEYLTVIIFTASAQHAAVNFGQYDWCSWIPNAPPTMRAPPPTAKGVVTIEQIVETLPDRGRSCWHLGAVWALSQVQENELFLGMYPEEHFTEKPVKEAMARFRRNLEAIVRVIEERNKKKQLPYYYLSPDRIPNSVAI
Description: In this assay 3×10^7 peritoneal neutrophils derived from guinea pigs were incubated at 37° C. in Dulbeccos buffer containing 50 mM tris buffer (pH 7.4). Five minutes before the addition of 100 μM arachidonic acid and 20 μM calcium ionophore (A23187), control vehicle or the test compounds were added to the neutrophils at a concentration of 10 μg/ml. Three minutes after the addition of arachidonic acid and calcium ionophore the total lipid was partitioned into chloroform after adjusting the pH to 3 with citric acid and the addition of equal parts of methanol and chloroform. The 5-HETE and LTB4 were resolved by HPLC using a 5 μM, 4×25 cm octadecyl silica column (IBM Instruments) with 70-80% methanol in water adjusted to pH 3.0 with acetic acid. As the mobile phase was pumped at 1.0 ml/minute, LTB4 and 5-HETE were detected by absorbance at 270 and 236 nm, respectively. LTB4 and 5-HETE were quantitated by comparison with the control and the results were expressed as a percent of control.

| Compound | 5-HETE, % of Control (Neutrophil Lipoxygenase) | LTB4, % of Control (Neutrophil Lipoxygenase) | IC50 ([1]; Homo sapiens, 1 h) | remaining activity at 10 µg/mL (Neutrophil Lipoxygenase; read-out: 5-HETE, % of Control) | remaining activity at 10 µg/mL (Neutrophil Lipoxygenase; read-out: LTB4, % of Control) | other results |
| --- | --- | --- | --- | --- | --- | --- |
| CCOC(=O)N1CCN(C2=C(Cl)C(=O)c3ccccc3C2=O)CC1 [Example 1, 4-(3-Chloro-1,4-dioxo-2-naphthyl)-1-piperazinecarboxylic acid, ethyl ester] | 0 % of Control | 0 % of Control |  |  |  | IC50 ([1]; ethyl ester): 5.5 µM |
| CN(CCN(C)C1=C(Cl)C(=O)c2ccccc2C1=O)Cc1ccccc1 [Example 2, 2-Chloro-3-[methyl[2-[methyl(phenylmethyl)amino]ethyl]amino]-1,4-naphthalenedione, hydrochloride] |  |  | 4 µM |  |  |  |
| O=C1C(Cl)=C(N2CCN(Cc3ccccc3)CC2)C(=O)c2ccccc21 [Example 5, 2-chloro-3-[4-(phenylmethyl)-1-piperazinyl]-1,4-naphthalenedione] | 0 % of Control | 0 % of Control | 10.4 µM |  |  |  |
| O=C1C(Cl)=C(N2CCN(CC(=O)N3CCOCC3)CC2)C(=O)c2ccccc21 [Example 6, 4-[[4-(3-chloro-1,4-dihydro-1,4-dioxo-2-naphthalenyl)-1-piperazinyl]acetyl]morpholine] |  |  | 20.6 µM |  |  |  |
| O=C1C(Cl)=C(N2CCN(CC(=O)N3CCCC3)CC2)C(=O)c2ccccc21 [Example 7, 1-[[4-(3-chloro-1,4-dihydro-1,4-dioxo-2-naphthalenyl)-1-piperazinyl]acetyl]pyrrolidine] |  |  | 14.9 µM |  |  |  |
| O=C1C(Cl)=C(N2CCN(c3ccccn3)CC2)C(=O)c2ccccc21 [Example 8, 2-chloro-3-[4-(2-pyridinyl)-1-piperazinyl]-1,4-naphthalenedione, hydrochloride] |  |  | 4.6 µM | 1.3% | 6.1% |  |
| CN(CCNCc1nc2ccccc2s1)C1=C(Cl)C(=O)c2ccccc2C1=O [Example 9, 2-[[2-(2-benzothiazolylmethylamino)ethyl]methylamino]-3-chloro-1,4-naphthalenedione] |  |  | 6.4 µM | 0.2% | 0% |  |
| CC1CN(C2=C(Cl)C(=O)c3ccccc3C2=O)CCN1 (centres unmarked) [Example 14, 2-chloro-3-(3-methyl-1-piperazinyl)-1,4-naphthalenedione] |  |  | 3 µM |  |  |  |

Second part, led by results:

| 5-HETE, % of Control (Neutrophil Lipoxygenase) | LTB4, % of Control (Neutrophil Lipoxygenase) | IC50 ([1]; Homo sapiens, 1 h) | remaining activity at 10 µg/mL (Neutrophil Lipoxygenase; read-out: 5-HETE, % of Control) | remaining activity at 10 µg/mL (Neutrophil Lipoxygenase; read-out: LTB4, % of Control) | Compound | other results |
| --- | --- | --- | --- | --- | --- | --- |
| 35.6 % of Control | 28.3 % of Control |  |  |  | Cl.O=C1C(Cl)=C(N2CCN(Cc3ccccc3)CC2)C(=O)c2ccccc21 [Example 15, 2-chloro-3-[4-(phenylmethyl)-1-piperazinyl]-1,4-naphthalenedione, hydrochloride] | IC50 ([1]; hydrochloride): 13.4 µM |
| 6.9 % of Control | 9.3 % of Control |  |  |  | CCOC(=O)N1CCN(C2=C(Cl)C(=O)c3ccccc3C2=O)CC1.Cl [Example 16, 4-(3-chloro-1,4-dihydro-1,4-dioxo-2-naphthalenyl)-1-piperazinecarboxylic acid, ethyl ester, hydrochloride] | IC50 ([1]; e, hydrochloride): 1.5 µM |
|  |  | 5.4 µM | 23.1% | 32.6% | O=C1C(Cl)=C(N2CCN(c3nc4ccccc4s3)CC2)C(=O)c2ccccc21 [Example 17, 2-[4-(2-benzothiazolyl)-1-piperazinyl]-3-chloro-1,4-naphthalenedione, hydrochloride] |  |
|  |  | 16.5 µM | 31.6% | 27.4% | CC(C)COC(=O)N1CCN(C2=C(Cl)C(=O)c3ccccc3C2=O)CC1 [Example 33, 4-(3-Chloro-1,4-dihydro-1,4-dioxo-2-naphthalenyl)-1-piperazinecarboxylic acid, 2-methylpropyl ester] |  |
|  |  | 1.8 µM |  |  | O=C1C(Cl)=C(N2CCN(C(=O)c3ccccc3Cl)CC2)C(=O)c2ccccc21 [Example 34, 1-(2-chlorobenzoyl)-4-(3-chloro-1,4-dihydro-1,4-dioxo-2-naphthalenyl)piperazine] |  |
